biological target: T1, human GCS (glucosylceramide synthase) (Homo sapiens, UniProt Q16739); assay: Glucosylceramide Synthase (GCS) Assay; format: biochemical; conditions: test compound 10 μM; microsome fraction of Expi293F cells expressing human GCS; 1.7 μM UDP-glucose, 3 μM C8 ceramide; room temperature 60 min; C8 glucosylceramide by Rapidfire MS/MS; read-out: GCS enzyme inhibitory rate at 10 μM (%)
T1 construct: made in house; host or cells: Expi293F cells (transient expression; microsome fraction)
T1 sequence (Q16739 1-394): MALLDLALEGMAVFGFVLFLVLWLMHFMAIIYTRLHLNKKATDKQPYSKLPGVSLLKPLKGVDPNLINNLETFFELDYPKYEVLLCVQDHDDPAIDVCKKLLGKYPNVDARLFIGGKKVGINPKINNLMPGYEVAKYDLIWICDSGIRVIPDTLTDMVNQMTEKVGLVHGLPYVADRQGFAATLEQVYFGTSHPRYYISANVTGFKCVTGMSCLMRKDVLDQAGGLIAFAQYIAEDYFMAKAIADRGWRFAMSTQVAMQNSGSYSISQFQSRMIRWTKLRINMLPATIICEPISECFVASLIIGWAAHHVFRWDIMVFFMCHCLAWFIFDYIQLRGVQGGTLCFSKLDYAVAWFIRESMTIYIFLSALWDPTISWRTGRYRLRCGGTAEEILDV
Description: In enzyme assay, a microsome fraction obtained by transient expression by Expi293F™ cells (catalog number: A14527, Thermo Fisher Scientific) was used as a glucosylceramide synthase source. Liposomal C8 ceramide and UDP-glucose were used as substrates. For each substrate concentration, 1.7 μM UDP-glucose, which is equal to the Km value, and 3 μM C8 ceramide were used. After the enzymatic reaction, the analysis was performed with Rapidfire MS/MS (API-4000™, SCIEX), and C8 glucosylceramide was quantified to evaluate the inhibitory activity of the test compound against glucosylceramide synthase activity.
PcDNA3.3TOPO vector (catalog number: K830001, Thermo Fisher Scientific) into which the human GCS gene was inserted was introduced into Expi293F™ Cells (catalog number: A14527, Thermo Fisher Scientific) by using ExpiFectamine™ 293 Transfection Kit (catalog number: A14525, Thermo Fisher Scientific). The cultured cells were dissolved in D-PBS (catalog number: 048-29805, Fuji Film Wako Pure Chemical Industries, Ltd.) containing 1 mM PMSF, and the solution was allowed to stand on ice for 30 minutes, and then subjected to cell disruption (homogenized). The disruption solution was centrifuged at 10,000×g for 20 minutes at 4° C., and the obtained supernatant was centrifuged at 142,400×g for 60 minutes at 4° C. The obtained precipitate was resuspended in a D-PBS solution containing 1 mM PMSF, and homogenized again to prepare as a microsome fraction. Protein quantification was performed by the CBB method.
A 1 mM compound solution prepared by dissolving the test compound in DMSO was added to a 384-well plate by 100 nL so that the final concentration of the test compound was 10 μM. Next, a substrate solution consisting of 3.4 μM UDP-glucose and 6 μM C8 ceramide was added by 5 μL, followed by an enzyme solution consisting of a 25 μg/mL microsome fraction by 5 μL. C8 ceramide was prepared from liposomes composed of 15 mol % C8 ceramide and 85 mol % dioleoyl phosphatidylcholine (1,2-dioleoyl-sn-glycero-3-phosphocholine: DOPC). The enzymatic reaction was carried out in a solution consisting of 20 mM tris-hydrochloric acid buffer (pH 7.5), 0.01% Tween 20, 0.01% bovine serum albumin and 1 mM dithiothreitol at room temperature for 60 min. Then, a solution consisting of 75% isopropanol and 1% formic acid containing 0.25 μM N-Octadecanoyl-D35-psichosine (catalog number: 1914, Matreya) as an internal standard substance was added by 60 μL to stop the enzymatic reaction. 5 μL of the centrifugal supernatant of the obtained reaction product was analyzed by Rapidfire MS/MS (Agilent Technologies) using API-4000™ (SCIEX), and the C8 glucosylceramide was quantified to evaluate the inhibitory activity of the test compound against the glucosylceramide synthase activity. The inhibitory activity of the test compound was evaluated when the C8 glucosylceramide level in the enzyme-free solution was considered as 100% inhibitory and the enzyme activity of the DMSO group in the absence of the compound was considered as 0% inhibitory.

First: COc1cc(F)ccc1-n1nccc(C(=O)Nc2ccc(OCC(F)(F)F)nc2)c1=O [Example 23, 2-(4-fluoro-2-methoxyphenyl)-3-oxo-N-[6-(2,2,2-trifluoroethoxy)pyridin-3-yl]-2,3-dihydropyridazine-4-carboxamide]
Second: O=C(Nc1ccc(OCC(F)(F)F)nc1)c1ccnn(-c2ccc(F)cc2OCC(F)(F)F)c1=O [Example 29, 2-[4-fluoro-2-(2,2,2-trifluoroethoxy)phenyl]-3-oxo-N-[6-(2,2,2-trifluoroethoxy)pyridin-3-yl]-2,3-dihydropyridazine-4-carboxamide]
The inhibition at 10 µM of the first is lower: 87% for the first, 97% for the second.

Going from `N#Cc1ccc(NC(=O)c2cccn(-c3ccccc3OCC(F)(F)F)c2=O)cn1` [Example 24, N-(6-cyanopyridin-3-yl)-2-oxo-1-[2-(2,2,2-trifluoroethoxy)phenyl]-1,2-dihydropyridine-3-carboxamide] to `N#Cc1ccc(NC(=O)c2cccn(-c3ccccc3OCC(F)(F)F)c2=O)nc1` [Example 31, N-(5-cyanopyridin-2-yl)-2-oxo-1-[2-(2,2,2-trifluoroethoxy)phenyl]-1,2-dihydropyridine-3-carboxamide], the inhibition at 10 µM falls from 98% to 92%.

Compared with `O=C(Nc1ccc(OCC(F)(F)F)nc1)c1cccn(-c2ccc(F)cc2N2CCOCC2)c1=O` [Example 25, 1-[4-fluoro-2-(morpholin-4-yl)phenyl]-2-oxo-N-[6-(2,2,2-trifluoroethoxy)pyridin-3-yl]-1,2-dihydropyridine-3-carboxamide], `N#Cc1cc(F)ccc1-n1cccc(C(=O)Nc2ccc(OCC(F)(F)F)nc2)c1=O` [Example 52, 1-(2-cyano-4-fluorophenyl)-2-oxo-N-[6-(2,2,2-trifluoroethoxy)pyridin-3-yl]-1,2-dihydropyridine-3-carboxamide] is higher in inhibition at 10 µM: 81% for the first, 85% for the second.

`O=C(Nc1ccc(OCC(F)(F)F)nc1)c1cccn(-c2ccc(F)cc2OCC(F)(F)F)c1=O` [Example 26, 1-[4-fluoro-2-(2,2,2-trifluoroethoxy)phenyl]-2-oxo-N-[6-(2,2,2-trifluoroethoxy)pyridin-3-yl]-1,2-dihydropyridine-3-carboxamide] and `O=C(Nc1ccc(OCC(F)(F)F)nc1)c1cccn(-c2ccc(F)cc2OCC(F)(F)C(F)(F)F)c1=O` [Example 56, 1-[4-fluoro-2-(2,2,3,3,3-pentafluoropropoxy)phenyl]-2-oxo-N-[6-(2,2,2-trifluoroethoxy)pyridin-3-yl]-1,2-dihydropyridine-3-carboxamide] are the same in inhibition at 10 µM: 100% for the first, 100% for the second.

First: COCCOc1cc(F)ccc1-n1cccc(C(=O)Nc2ccc(OCC(F)(F)F)nc2)c1=O [Example 27, 1-[4-fluoro-2-(2-methoxyethoxy)phenyl]-2-oxo-N-[6-(2,2,2-trifluoroethoxy)pyridin-3-yl]-1,2-dihydropyridine-3-carboxamide]
Second: O=C(Nc1ccc(C(F)F)nc1)c1cccn(-c2ccc(F)cc2OCC(F)(F)F)c1=O [Example 49, N-[6-(difluoromethyl)pyridin-3-yl]-1-[4-fluoro-2-(2,2,2-trifluoroethoxy)phenyl]-2-oxo-1,2-dihydropyridine-3-carboxamide]
The inhibition at 10 µM of the first is lower: 75% for the first, 97% for the second.

Compared with `N#Cc1cc(F)ccc1-n1cccc(C(=O)Nc2ccc(Oc3ccccc3)cc2)c1=O` [Example 30, 1-(2-cyano-4-fluorophenyl)-2-oxo-N-(4-phenoxyphenyl)-1,2-dihydropyridine-3-carboxamide], `N#Cc1ccc(NC(=O)c2cccn(-c3ccc(F)cc3OCC(F)(F)F)c2=O)cc1` [Example 41, N-(4-cyanophenyl)-1-[4-fluoro-2-(2,2,2-trifluoroethoxy)phenyl]-2-oxo-1,2-dihydropyridine-3-carboxamide] is higher in inhibition at 10 µM: 55% for the first, 88% for the second.

First: CC(C)Cn1cc(NC(=O)c2cccn(-c3ccc(F)cc3OCC(F)(F)F)c2=O)cn1 [Example 33, 1-[4-fluoro-2-(2,2,2-trifluoroethoxy)phenyl]-N-[1-(2-methylpropyl)-1H-pyrazol-4-yl]-2-oxo-1,2-dihydropyridine-3-carboxamide]
Second: O=C(Nc1cnn(CC2CC2)c1)c1cccn(-c2ccc(F)cc2OCC(F)(F)F)c1=O [Example 40, N-[1-(cyclopropylmethyl)-1H-pyrazol-4-yl]-1-[4-fluoro-2-(2,2,2-trifluoroethoxy)phenyl]-2-oxo-1,2-dihydropyridine-3-carboxamide]
The inhibition at 10 µM of the first is higher: 76% for the first, 69% for the second.

Going from `O=C(Nc1ccc(CN2CCOCC2)cc1)c1cccn(-c2ccc(F)cc2OCC(F)(F)F)c1=O` [Example 35, 1-[4-fluoro-2-(2,2,2-trifluoroethoxy)phenyl]-N-{4-[(morpholin-4-yl)methyl]phenyl}-2-oxo-1,2-dihydropyridine-3-carboxamide] to `O=C(Nc1ccc(C(=O)N2CCCCC2)cc1)c1cccn(-c2ccc(F)cc2OCC(F)(F)F)c1=O` [Example 43, 1-[4-fluoro-2-(2,2,2-trifluoroethoxy)phenyl]-2-oxo-N-[4-(piperidine-1-carbonyl)phenyl]-1,2-dihydropyridine-3-carboxamide], the inhibition at 10 µM rises from 85% to 95%.

Going from `O=C(Nc1cnc(C(F)(F)F)nc1)c1cccn(-c2ccc(F)cc2OCC(F)(F)F)c1=O` [Example 36, 1-[4-fluoro-2-(2,2,2-trifluoroethoxy)phenyl]-2-oxo-N-[2-(trifluoromethyl)pyrimidin-5-yl]-1,2-dihydropyridine-3-carboxamide] to `O=C(Nc1cnc(C(F)(F)F)cn1)c1cccn(-c2ccc(F)cc2OCC(F)(F)F)c1=O` [Example 37, 1-[4-fluoro-2-(2,2,2-trifluoroethoxy)phenyl]-2-oxo-N-[5-(trifluoromethyl)pyrazin-2-yl]-1,2-dihydropyridine-3-carboxamide], the inhibition at 10 µM falls from 86% to 83%.

Going from `O=C(Nc1ccc(C(F)(F)F)nn1)c1cccn(-c2ccc(F)cc2OCC(F)(F)F)c1=O` [Example 38, 1-[4-fluoro-2-(2,2,2-trifluoroethoxy)phenyl]-2-oxo-N-[6-(trifluoromethyl)pyridazin-3-yl]-1,2-dihydropyridine-3-carboxamide] to `O=C(Nc1cnn(CC(F)(F)F)c1)c1cccn(-c2ccc(F)cc2OCC(F)(F)F)c1=O` [Example 48, 1-[4-fluoro-2-(2,2,2-trifluoroethoxy)phenyl]-2-oxo-N-[1-(2,2,2-trifluoroethyl)-1H-pyrazol-4-yl]-1,2-dihydropyridine-3-carboxamide], the inhibition at 10 µM falls from 97% to 70%.

Compared with `CC(C)(O)c1ccc(NC(=O)c2cccn(-c3ccc(F)cc3OCC(F)(F)F)c2=O)cc1` [Example 42, 1-[4-fluoro-2-(2,2,2-trifluoroethoxy)phenyl]-N-[4-(2-hydroxypropan-2-yl)phenyl]-2-oxo-1,2-dihydropyridine-3-carboxamide], `O=C(Nc1ccc(OCC2CC2)cc1)c1cccn(-c2ccc(F)cc2OCC(F)(F)F)c1=O` [Example 50, N-[4-(cyclopropylmethoxy)phenyl]-1-[4-fluoro-2-(2,2,2-trifluoroethoxy)phenyl]-2-oxo-1,2-dihydropyridine-3-carboxamide] is higher in inhibition at 10 µM: 99% for the first, 100% for the second.

Work on `O=C(Nc1cnc(OC(F)F)nc1)c1cccn(-c2ccc(F)cc2OCC(F)(F)F)c1=O` [Example 51, N-[2-(difluoromethoxy)pyrimidin-5-yl]-1-[4-fluoro-2-(2,2,2-trifluoroethoxy)phenyl]-2-oxo-1,2-dihydropyridine-3-carboxamide] yielded an inhibition at 10 µM of 84%.
